Source: paper PMC10906223 (JCI Insight, 2024)
Several values for one entry are separate records, joined by “and”; a condition that tells them apart may be missing. Identical values can stand only once.

How the values were obtained:
[1] = tested on: diabetic NOD mice; assay: Daily body weight in NOD mice; assay type: in vivo, mouse; details: for Daily body weight (Figure 7F): Diabetic, WCDD301 treated, in g (unit assumed)
Protocol: We preweighed WCDD301 into microfuge tubes and reconstituted it using deionized water. Using a 10 μL pipette tip, we placed the calculated dose of WCDD301 (at the volume range of 1–1.5 μL) within the center of pearls. WCDD301 was placed into pearls 30–45 minutes before administration. For oral administration of pearls, we designed an applicator using a disposable plastic transfer pipette and syringe plunger lubricated with olive oil. Food intake and body weight in each experimental group (diabetic WCDD301-treated, diabetic placebo-treated, and nondiabetic placebo-treated NOD mice) were monitored daily for 4 weeks. Urine glucose was measured from individually caged NOD mice (nondiabetic placebo treated n = 2, diabetic placebo treated n = 2, and diabetic WCDD301 treated n = 4, 21–23 weeks old) with metabolic cages. Urine glucose was monitored every 24 hours for 10 days by semiquantitative measurements (P-STICKS, Millpledge Veterinary).

[2] = Pharmacokinetics in CD-1 mice, subcutaneous or intravenous; assay type: in vivo, mouse; details: for Plasma concentration (Supplemental Figure 5A) / Plasma concentration (Supplemental Figure 5B): individual mice M1-M3, route not given
Protocol: CD-1 mice were injected with WCDD301 subcutaneously (1 mg/kg, n = 3) or intravenously (1 mg/kg, n = 3), and blood was collected from saphenous vein directly into K2-EDTA–containing microcentrifuge tubes at 5, 10, and 15 minutes postdosing. An aliquot of 20 μL plasma was deproteinized using 200 μL of internal standard solution (100 ng/mL of labetalol and tolbutamide in acetonitrile), incubated for 10 minutes at RT, and centrifuged at 1,800g for 10 minutes at 4°C. Following 1:1 dilution of the supernatant with deionized water, 1 μL of the diluted sample was used for LC-MS/MS analysis (TripleQuad 6500, column: ACQUITY UPLC BEH C18 2.1 × 50 mm, 1.7 μm; flow rate: 0.6 mL/min, retention time: 1.60/1.78 WCDD301/labetalol).

CC(=O)OCC(N)(COC(C)=O)COC(C)=O [WCDD301, 2-(acetoxymethyl)-2-aminopropane-1,3-diyl diacetate]
Daily body weight (Figure 7F) ([1]; Day 1): 22.8 and 23.7 and 24.1 and 24.7
Daily body weight (Figure 7F) ([1]; Day 2): 23 and 23.9 and 24.3 and 25.3
Daily body weight (Figure 7F) ([1]; Day 3): 22.6 and 23.4 and 23.9 and 25.3
Daily body weight (Figure 7F) ([1]; Day 7): 22.3 and 23.1 and 23.5 and 24.7
Daily body weight (Figure 7F) ([1]; Day 8): 22.3 and 23.1 and 23.5 and 24.8
Daily body weight (Figure 7F) ([1]; Day 9): 22.6 and 23.4 and 23.9 and 24.8
Daily body weight (Figure 7F) ([1]; Day 10): 22.3 and 23.1 and 23.5 and 24.6
Daily body weight (Figure 7F) ([1]; Day 11): 22.3 and 23.1 and 23.5 and 25.1
Daily body weight (Figure 7F) ([1]; Day 12): 22.4 and 23.2 and 23.7 and 25.4
Daily body weight (Figure 7F) ([1]; Day 13): 22.5 and 23.3 and 23.8 and 25.3
Daily body weight (Figure 7F) ([1]; Day 14): 22.6 and 23.4 and 23.9 and 25.2
Daily body weight (Figure 7F) ([1]; Day 15): 22.9 and 23.8 and 24.2 and 24.7
Daily body weight (Figure 7F) ([1]; Day 16): 23.1 and 24 and 24.4 and 25.6
Daily body weight (Figure 7F) ([1]; Day 17): 23 and 23.9 and 24.3 and 25.3
Daily body weight (Figure 7F) ([1]; Day 18): 22.8 and 23.7 and 24.1 and 25.2
Daily body weight (Figure 7F) ([1]; Day 19): 22.4 and 23.2 and 23.7 and 25.1
Daily body weight (Figure 7F) ([1]; Day 20): 22.6 and 23.4 and 23.9 and 25.7
Daily body weight (Figure 7F) ([1]; Day 21): 22.5 and 23.3 and 23.8 and 25.1
Daily body weight (Figure 7F) ([1]; Day 22): 22.6 and 23.4 and 23.9 and 25.1
Daily body weight (Figure 7F) ([1]; Day 23): 22.4 and 23.2 and 23.7 and 25.1
Daily body weight (Figure 7F) ([1]; Day 24): 22.5 and 23.3 and 23.8 and 25.1
Daily body weight (Figure 7F) ([1]; Day 25): 22.5 and 23.3 and 23.8 and 25.2
Daily body weight (Figure 7F) ([1]; Day 26): 22.3 and 23.1 and 23.5 and 25.4
Daily body weight (Figure 7F) ([1]; Day 27): 22.3 and 23.1 and 23.5 and 25.2
Daily body weight (Figure 7F) ([1]; Day 28): 22.8 and 23.7 and 24.1 and 25.4
Body weight, daily monitoring ([1]; diabetic WCDD301-treated mice): phenotypes similar to nondiabetic placebo-treated mice
Plasma concentration (Supplemental Figure 5A) ([2]; 5 min): 64.8 and 47.6 and 146
Plasma concentration (Supplemental Figure 5B) ([2]; 5 min): 57.9 and 180 and 135
Plasma concentration (Supplemental Figure 5A) ([2]; 10 min): 44.3 and 27.1 and 52.9
Plasma concentration (Supplemental Figure 5B) ([2]; 10 min): 11 and 18.9 and 12.4
Plasma concentration (Supplemental Figure 5A) ([2]; 15 min): 31.3 and 22.7 and 21.7
Plasma concentration (Supplemental Figure 5B) ([2]; 15 min): 0 and 6.64 and 3.56
Plasma concentration, subcutaneous compared with intravenous ([2]; CD-1 mice, 1 mg/kg, 15 minutes): increased plasma concentrations of WCDD301 at 15 minutes following subcutaneous injection
